Ten compounds from patent US20200361895A1, “NOVEL SULFONAMIDE CARBOXAMIDE COMPOUNDS” (Inflazome Limited, priority 2017, published 2020) can be followed below.

The target of test [1] is T1, NLRP3 (Homo sapiens, UniProt Q96P20). In words: Human whole blood IL1β release assay (LPS + nigericin, AlphaLisa IL-1β; HWB IC50). To be noted: IL-1β release. It is filed as cell-based. Also on record: Human whole blood in Li-heparin tubes was obtained from healthy donors from a volunteer donor panel; from tissue; host or cells: human whole blood from healthy donors. A digest of the protocol: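 IL-1β in plasma supernatant quantified by AlphaLisa after nigericin (10 μM final, 1 h, 37 °C) triggering of human whole blood that had been preincubated 3 h with LPS (1 μg/ml) plus compound (half-log, 8 points, from 10 μM). IC50 by variable-slope four-parameter regression.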
Background: In Alpha technology, singlet oxygen from a donor bead excites a nearby acceptor bead.

In test [2] the target is T1, NLRP3. In words: THP-1 cells pyroptosis assay (LPS + nigericin, resazurin readout; THP IC50). Also on record: Seed THP-1 cells (25,000 cells/well) containing 1.0 μg/ml LPS in 40 μl of RPMI medium; host or cells: THP-1 cells. The test is classed as cell-based. A digest of the protocol:
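IC50 from 4-parameter fit of resazurin fluorescence (100 μM, 1-2 hrs), reflecting surviving cells after pyroptosis. LPS-primed (1 μg/ml) THP-1 cells in FBS-free RPMI got compound for 3 hrs at 37° C (top 10 μM, half-log, 8 points), then nigericin 5 μM for 1 hr.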
Background: Alamar Blue is a resazurin reagent that responds to reducing activity.

Counter-ions that a name gives are not always drawn. Where only a bound is given, the exact number is not on record here.

T1 sequence (Q96P20 whole entry): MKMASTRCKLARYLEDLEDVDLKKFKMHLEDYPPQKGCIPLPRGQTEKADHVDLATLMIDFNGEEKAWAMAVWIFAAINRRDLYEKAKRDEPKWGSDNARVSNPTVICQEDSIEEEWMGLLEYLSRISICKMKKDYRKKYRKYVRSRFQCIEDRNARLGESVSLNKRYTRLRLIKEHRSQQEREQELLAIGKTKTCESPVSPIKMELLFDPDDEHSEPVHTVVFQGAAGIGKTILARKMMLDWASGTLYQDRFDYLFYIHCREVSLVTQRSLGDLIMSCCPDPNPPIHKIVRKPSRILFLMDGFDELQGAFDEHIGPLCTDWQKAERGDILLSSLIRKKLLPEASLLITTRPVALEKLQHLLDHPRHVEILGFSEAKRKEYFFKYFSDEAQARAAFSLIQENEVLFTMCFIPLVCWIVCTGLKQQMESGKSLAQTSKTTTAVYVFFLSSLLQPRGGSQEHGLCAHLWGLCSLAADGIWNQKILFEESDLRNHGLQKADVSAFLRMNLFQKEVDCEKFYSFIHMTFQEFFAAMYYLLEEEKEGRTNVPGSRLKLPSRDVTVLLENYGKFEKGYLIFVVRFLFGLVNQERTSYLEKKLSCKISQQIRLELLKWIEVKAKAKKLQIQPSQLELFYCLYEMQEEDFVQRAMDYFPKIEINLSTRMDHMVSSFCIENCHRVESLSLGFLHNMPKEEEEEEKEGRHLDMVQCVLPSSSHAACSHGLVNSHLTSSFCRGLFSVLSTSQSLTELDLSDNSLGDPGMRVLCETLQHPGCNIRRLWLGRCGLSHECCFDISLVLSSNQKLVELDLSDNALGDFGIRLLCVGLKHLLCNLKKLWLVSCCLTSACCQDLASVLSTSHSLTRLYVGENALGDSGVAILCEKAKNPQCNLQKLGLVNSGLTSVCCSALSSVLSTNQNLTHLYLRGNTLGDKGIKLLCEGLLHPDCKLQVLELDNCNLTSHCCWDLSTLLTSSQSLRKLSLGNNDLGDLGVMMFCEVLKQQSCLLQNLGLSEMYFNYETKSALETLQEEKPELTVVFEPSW

On to `CNCc1cc(S(=O)(=O)NC(=O)Nc2c(-c3ccnc(OC)c3)ccc3c2CCC3)nn1C1CC1` [Example 190, 1-Cyclopropyl-N-((5-(2-methoxypyridin-4-yl)-2,3-dihydro-1H-inden-4-yl)carbamoyl)-5-((methylamino)methyl)-1H-pyrazole-3-sulfonamide, sodium salt], for which the IC50 on NLRP3 [1] and at NLRP3 [2] was no more than 500 nM throughout.

`COc1cc(-c2ccc3c(c2NC(=O)NS(=O)(=O)c2cc(C4CCCN4C)n(C(C)C)n2)CCC3)ccn1` (centres unmarked) [Example 191, 1-Isopropyl-N-((5-(2-methoxypyridin-4-yl)-2,3-dihydro-1H-inden-4-yl)carbamoyl)-5-(1-methylpyrrolidin-2-yl)-1H-pyrazole-3-sulfonamide, sodium salt]: the IC50 (usually the concentration at which inhibition is half-maximal) was no more than 1000 nM on NLRP3 [1] and no more than 500 nM on NLRP3 [2].

As for `CCC(c1cc(S(=O)(=O)NC(=O)Nc2c(-c3ccnc(OC)c3)ccc3c2CCC3)nn1C(C)C)N(C)C` (centres unmarked) [Example 192, 5-(1-(Dimethylamino)propyl)-1-isopropyl-N-((5-(2-methoxypyridin-4-yl)-2,3-dihydro-1H-inden-4-yl)carbamoyl)-1H-pyrazole-3-sulfonamide], the half-maximal inhibitory concentration (IC50) at NLRP3 [1] and on NLRP3 [2] was no more than 500 nM throughout.

As to `COc1cc(-c2ccc3c(c2NC(=O)NS(=O)(=O)c2cc(CN(C)C)n(C(C)C)n2)CCC3)ccn1` [Example 193, 5-((Dimethylamino)methyl)-1-isopropyl-N-((5-(2-methoxypyridin-4-yl)-2,3-dihydro-1H-inden-4-yl)carbamoyl)-1H-pyrazole-3-sulfonamide], the IC50 at NLRP3 [1] and at NLRP3 [2] was no more than 500 nM throughout.

For `CC(C)(C#N)n1ccc(S(=O)(=O)NC(=O)Nc2c(-c3ccnc(OC(F)F)c3)ccc3c2CCO3)n1` [Example 195, 1-(2-Cyanopropan-2-yl)-N-((5-(2-(difluoromethoxy)pyridin-4-yl)-2,3-dihydrobenzofuran-4-yl)carbamoyl)-1H-pyrazole-3-sulfonamide], the IC50 on NLRP3 [1] and at NLRP3 [2] was no more than 500 nM each time.

Turning to `COc1cc(-c2ccc3c(c2NC(=O)NS(=O)(=O)c2ccn(C(C)(C)C#N)n2)CCO3)ccn1` [Example 196, 1-(2-Cyanopropan-2-yl)-N-((5-(2-methoxypyridin-4-yl)-2,3-dihydrobenzofuran-4-yl)carbamoyl)-1H-pyrazole-3-sulfonamide], the IC50 at NLRP3 [1] and at NLRP3 [2] was no more than 500 nM in each case.

Take `CNCC(C)(C)n1ccc(S(=O)(=O)NC(=O)Nc2c(-c3ccnc(OC)c3)ccc3c2CCC3)n1` [Example 197, N-((5-(2-Methoxypyridin-4-yl)-2,3-dihydro-1H-inden-4-yl)carbamoyl)-1-(2-methyl-1-(methylamino)propan-2-yl)-1H-pyrazole-3-sulfonamide, sodium salt]: the IC50 on NLRP3 [1] and at NLRP3 [2] was no more than 500 nM each time.

As to `CN(C)CC(C)(C)n1ccc(S(=O)(=O)NC(=O)Nc2c(-c3ccnc(OC4CC4)c3)ccc3c2CCO3)n1` [Example 198, N-((5-(2-Cyclopropoxypyridin-4-yl)-2,3-dihydrobenzofuran-4-yl)carbamoyl)-1-(1-(dimethylamino)-2-methylpropan-2-yl)-1H-pyrazole-3-sulfonamide, sodium salt], the IC50 on NLRP3 [1] and on NLRP3 [2] was no more than 500 nM each time.

Consider `COc1cc(-c2ccc3c(c2NC(=O)NS(=O)(=O)c2ccn(C4CCN(C)C4)n2)CCC3)ccn1` (centres unmarked) [Example 199, N-((5-(2-Methoxypyridin-4-yl)-2,3-dihydro-1H-inden-4-yl)carbamoyl)-1-(1-methylpyrrolidin-3-yl)-1H-pyrazole-3-sulfonamide, sodium salt], for which the IC50 at NLRP3 [1] and on NLRP3 [2] was no more than 500 nM throughout.

`CN(C)CC(C)(C)n1ccc(S(=O)(=O)NC(=O)Nc2c(-c3ccnc(OC4CC4)c3)ccc3c2CCC3)n1` [Example 200, N-((5-(2-Cyclopropoxypyridin-4-yl)-2,3-dihydro-1H-inden-4-yl)carbamoyl)-1-(1-(dimethylamino)-2-methylpropan-2-yl)-1H-pyrazole-3-sulfonamide, sodium salt]: the IC50 on NLRP3 [1] and on NLRP3 [2] was no more than 500 nM each time.
